The structures appear in SMILES notation. Converted amounts (≈) assume the structure as drawn. The source made the active and inactive calls. The calls are words filed in the database; no cut-off is given here.

For data set [1], the target named is T1, DNA polymerase theta (Homo sapiens, UniProt O75417). Briefly: Displacement of tracer from recombinant Tb-labeled DNA polymerase theta (unknown origin) using DNA as substrate preincubated for 30 mins followed by compound addition for 2 hrs by HTRF assay. (In general: TR-FRET usually uses a lanthanide donor and a delayed reading to cut background.)
In data set [2] the target is T1, DNA polymerase theta. Briefly: Displacement of tracer from recombinant Tb-labeled DNA polymerase theta (unknown origin) assessed as end point Kd using DNA as substrate preincubated for 30 mins followed by compound addition for 2 hrs by HTRF assay.
Data set [3] in a line: Inhibition of microhomology-mediated end joining in HEK293 cells. Type of data set: functional, cell-based, Homo sapiens.
The test system of data set [4] is DLD-1. Briefly: Antiproliferative activity against human DLD-1 cells. The data set is classed as functional, cell-based.
Data set [5] relates to DLD-1. Briefly: Antiproliferative activity against human BRCA-2 deficient DLD-1 cells. Type of data set: functional, cell-based.
Data set [6] deals with T1, DNA polymerase theta. Briefly: Inhibition of recombinant human full length DNA polymerase theta using DNA substrate measured after 1 hrs in presence of dNTPs by plate reader assay.
The nature of data set [7]: Metabolic stability in human liver microsomes assessed as intrinsic clearance. Type of data set: ADME, Microsome. The settings on record: read-out: CLH. Background: Liver microsomes are a subcellular fraction often used to study metabolism.
Data set [8] is described as follows: Metabolic stability in rat liver microsomes assessed as intrinsic clearance. The settings on record: read-out: CLH. The data set is classed as ADME, Microsome.
Data set [9] can be described thus: Clearance in rat plasma at 3 mg/kg, iv. The data set is classed as ADME, organism-based.
Data set [10] is described as follows: Half life in rat at 3 mg/kg, iv. The data set is classed as ADME, organism-based. The settings on record: in vivo.
Data set [11] can be described thus: Volume of distribution at steady state in mouse at 3 mg/kg, iv. Particulars: in vivo, read-out: Vdss. Type of data set: ADME, organism-based.
A short description of data set [12]: Half life in mouse at 3 mg/kg, iv. The data set is classed as ADME, organism-based. The settings on record: in vivo.
Data set [13] can be described thus: Oral bioavailability in mouse at 10 mg/kg. The data set is classed as ADME, organism-based. The settings on record: in vivo.
Data set [14] is described as follows: Metabolic stability in mouse liver microsomes assessed as intrinsic clearance. Type of data set: ADME, Microsome. Particulars: read-out: CLH.
Data set [15] in a line: AUCinfinity in mouse at 10 mg/kg, po. The data set is classed as ADME, organism-based. On the set-up: time infinity, dose 10 mg/kg, route po. Particulars: in vivo.
A short description of data set [16]: Lipophilicity, logD of compound. The settings on record: octanol/water. Type of data set: physicochemical.
A short description of data set [17]: Free maximum concentration of drug in rat at 10 mg/kg, po. The data set is classed as ADME, organism-based. The settings on record: in vivo.
Data set [18] can be described thus: AUCinfinity in rat at 10 mg/kg, po. The data set is classed as ADME, organism-based. On the set-up: time infinity, dose 10 mg/kg, route po. Particulars: in vivo.
A short description of data set [19]: Mutagenicity in Salmonella typhimurium LT2 TA98 in presence or absence of S9 fraction by Ames test. Type of data set: toxicity. Particulars: salmonella enterica subsp. enterica serovar typhimurium. Background: The Ames test uses bacterial strains that need an amino acid and regain growth without it when mutated back.
Data set [20] is described as follows: Solubility of the compound. Type of data set: physicochemical.
Data set [21] is described as follows: Free maximum concentration of drug in mouse at 10 mg/kg, po. The data set is classed as ADME, organism-based. The settings on record: in vivo.
Data set [22] in a line: Oral bioavailability in rat at 10 mg/kg. The data set is classed as ADME, organism-based. Particulars: in vivo.
The nature of data set [23]: In vivo inhibition of DNA polymerase theta in mouse assessed as fold induction of micronuclei in reticulocytes at 150 mg/kg, po BID for 4 days by flow cytometry analysis. Particulars: time 4 day. The data set is classed as functional.
The nature of data set [24]: Clearance in mouse plasma at 3 mg/kg, iv. The data set is classed as ADME, organism-based.
Data set [25] is described as follows: Clearance in mouse plasma at 0.3 mg/kg, iv. Type of data set: ADME, organism-based.
In data set [26] the test system is Breast carcinoma cell. The experiment in a line: Antitumor activity against BRCA1/SHLD2 knockout rat breast cancer xenograft model assessed as tumor growth inhibition at 100 mg/kg, po qd. The data set is classed as functional, organism-based.
Data set [27] is described as follows: Mutagenicity in Salmonella typhimurium LT2 TA100 in presence or absence of S9 fraction by Ames test. The settings on record: salmonella enterica subsp. enterica serovar typhimurium. The data set is classed as toxicity.
Data set [28] is described as follows: Volume of distribution at steady state in rat at 3 mg/kg, iv. The data set is classed as ADME, organism-based. The settings on record: in vivo, read-out: Vdss.
The nature of data set [29]: Thermodynamic solubility of the compound. Type of data set: physicochemical. The settings on record: read-out: Therm_solubility.
Data set [30] deals with T1, DNA polymerase theta. Briefly: Inhibition of human full length DNA polymerase theta ATPase activity by ADP-Glo assay.

T1 sequence (O75417 whole entry): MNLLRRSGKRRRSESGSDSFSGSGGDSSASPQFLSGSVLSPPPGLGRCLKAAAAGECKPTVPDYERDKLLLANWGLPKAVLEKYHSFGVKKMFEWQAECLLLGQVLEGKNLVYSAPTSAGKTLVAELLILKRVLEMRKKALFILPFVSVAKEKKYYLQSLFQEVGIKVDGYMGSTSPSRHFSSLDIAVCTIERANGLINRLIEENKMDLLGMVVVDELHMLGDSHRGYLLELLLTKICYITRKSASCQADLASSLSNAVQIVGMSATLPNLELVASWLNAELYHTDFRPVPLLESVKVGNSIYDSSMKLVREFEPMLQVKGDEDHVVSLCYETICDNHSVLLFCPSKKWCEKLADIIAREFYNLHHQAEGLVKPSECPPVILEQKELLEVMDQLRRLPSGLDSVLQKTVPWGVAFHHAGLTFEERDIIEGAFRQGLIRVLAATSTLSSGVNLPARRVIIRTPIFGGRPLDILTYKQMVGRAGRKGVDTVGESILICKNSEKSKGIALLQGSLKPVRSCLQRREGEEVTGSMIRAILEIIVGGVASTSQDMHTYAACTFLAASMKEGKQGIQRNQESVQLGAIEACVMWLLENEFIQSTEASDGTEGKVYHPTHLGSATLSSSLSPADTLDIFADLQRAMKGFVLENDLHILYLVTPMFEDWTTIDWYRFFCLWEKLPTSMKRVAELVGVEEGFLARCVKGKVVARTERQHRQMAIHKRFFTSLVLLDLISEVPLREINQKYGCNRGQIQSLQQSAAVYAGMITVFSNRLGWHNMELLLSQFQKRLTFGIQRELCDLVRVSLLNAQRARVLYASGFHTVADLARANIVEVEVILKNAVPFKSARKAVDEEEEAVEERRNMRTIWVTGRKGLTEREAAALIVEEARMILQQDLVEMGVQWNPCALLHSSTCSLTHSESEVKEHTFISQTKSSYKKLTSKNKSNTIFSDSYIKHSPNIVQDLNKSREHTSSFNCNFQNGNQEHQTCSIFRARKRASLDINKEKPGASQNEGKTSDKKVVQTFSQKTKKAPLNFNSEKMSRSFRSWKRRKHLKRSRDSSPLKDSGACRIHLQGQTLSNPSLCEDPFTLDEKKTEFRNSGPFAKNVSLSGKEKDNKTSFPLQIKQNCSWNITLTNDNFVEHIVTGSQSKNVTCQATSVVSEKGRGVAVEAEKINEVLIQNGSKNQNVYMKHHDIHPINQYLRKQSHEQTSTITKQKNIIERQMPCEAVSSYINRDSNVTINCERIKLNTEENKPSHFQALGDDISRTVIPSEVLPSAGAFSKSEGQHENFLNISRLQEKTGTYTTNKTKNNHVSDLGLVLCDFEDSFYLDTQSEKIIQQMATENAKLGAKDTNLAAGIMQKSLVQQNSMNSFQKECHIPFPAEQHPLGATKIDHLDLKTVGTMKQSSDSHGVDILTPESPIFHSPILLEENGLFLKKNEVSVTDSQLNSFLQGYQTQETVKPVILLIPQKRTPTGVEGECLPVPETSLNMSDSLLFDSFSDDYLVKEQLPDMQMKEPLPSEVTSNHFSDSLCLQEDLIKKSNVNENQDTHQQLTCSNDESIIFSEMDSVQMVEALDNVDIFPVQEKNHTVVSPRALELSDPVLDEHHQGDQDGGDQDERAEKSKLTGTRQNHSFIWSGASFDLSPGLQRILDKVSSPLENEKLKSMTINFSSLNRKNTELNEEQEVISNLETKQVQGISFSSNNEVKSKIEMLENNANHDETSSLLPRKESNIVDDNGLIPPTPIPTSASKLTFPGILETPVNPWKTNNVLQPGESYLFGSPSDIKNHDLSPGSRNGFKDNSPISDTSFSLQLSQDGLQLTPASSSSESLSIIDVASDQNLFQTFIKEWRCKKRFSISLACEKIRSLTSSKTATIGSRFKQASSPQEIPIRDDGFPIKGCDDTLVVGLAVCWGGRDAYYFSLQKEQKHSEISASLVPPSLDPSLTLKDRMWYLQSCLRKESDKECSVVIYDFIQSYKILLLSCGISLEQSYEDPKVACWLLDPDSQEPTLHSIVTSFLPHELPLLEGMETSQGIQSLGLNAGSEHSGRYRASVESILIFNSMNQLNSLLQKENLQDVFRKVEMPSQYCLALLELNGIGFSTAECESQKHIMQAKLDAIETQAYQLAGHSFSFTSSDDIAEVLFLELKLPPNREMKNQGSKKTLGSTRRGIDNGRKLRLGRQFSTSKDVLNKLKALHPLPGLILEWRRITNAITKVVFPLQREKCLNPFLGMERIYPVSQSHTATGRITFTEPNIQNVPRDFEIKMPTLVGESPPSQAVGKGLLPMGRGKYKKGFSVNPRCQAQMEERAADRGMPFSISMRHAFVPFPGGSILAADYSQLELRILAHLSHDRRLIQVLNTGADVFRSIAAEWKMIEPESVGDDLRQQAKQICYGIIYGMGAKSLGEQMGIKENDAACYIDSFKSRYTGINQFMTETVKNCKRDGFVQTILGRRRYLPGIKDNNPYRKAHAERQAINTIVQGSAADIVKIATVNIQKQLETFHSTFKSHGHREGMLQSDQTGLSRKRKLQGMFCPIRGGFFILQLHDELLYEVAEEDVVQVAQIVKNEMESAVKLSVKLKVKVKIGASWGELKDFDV

On to `Cc1cccc(N(C)C(=O)[C@@H]2C[C@H](O)CN2c2nc(C)cc(C)c2C#N)c1`, for which the Kd in data set [1] came out at 0.019 µM; in [2] it was 0.051 µM. For the same compound, the EC50 in [3] is 0.28 µM; in data set [4], > 12 µM; in data set [5], 4.1 µM.

As to `Cc1cc(C(F)(F)F)cc(N2C(=O)[C@@H](O)[C@@H](O)[C@H]2C(=O)N(C)c2ccc(F)c(Cl)c2)n1`, the half-maximal inhibitory concentration (IC50) in [6] was determined as 0.0076 µM. Further, the microsomal CLint in data set [7] is 30 µL/min/mg; in data set [8] it was 50 µL/min/mg; in data set [14] it was 42 µL/min/mg. In addition, the clearance in data set [9] amounted to 35 mL/min/kg; in [24], 2.8 mL/min/kg; in [25], 16.4 mL/min/kg. The half-life in data set [10] was 1.3 h; in data set [12] it was 7 h. The Vd in data set [11] was found to be 2.5 L/kg; in data set [28] it was 2.9 L/kg. Also, the bioavailability in data set [13] was 80%; in data set [22] it was 57%. For the same compound, the AUC(0-inf) in [15] is 54700 ng·h/mL; in [18], 2750 ng·h/mL. This compound also came in with a logD in [16] of 3. Also, the fCmax in data set [17] came out at 79 nM; in data set [21], 405 nM. The Activity result in data set [19] and in data set [27] was “Non-Toxic” throughout. Also, in data set [20], the concentration in solution (solubility) came to 880 µM (≈ 406 µg/mL). For the same compound, the 50% effective concentration (EC50) in data set [3] is 0.24 µM; in [4], > 12 µM; in data set [5], 1.1 µM. Moreover, in [23], the “fold change (FC)” value is listed as 2. For the same compound, the result in [26] was Active.

For `Cc1cc(C(F)(F)F)cc(N2C(=O)OC[C@H]2C(=O)N(C)c2cccc(Cl)c2)n1`, the microsomal CLint in [14] came to 410 µL/min/mg.

Turning to `Cc1cccc(N(C)C(=O)[C@@H]2[C@H](O)CCN2c2nc(C)cc(C(F)(F)F)c2C#N)c1`, the solubility thermodynamic in data set [29] amounted to 381 µM (≈ 159 µg/mL). The microsomal CLint in data set [14] is > 1500 µL/min/mg. For the same compound, the Kd in data set [1] came out at 0.0048 µM; in [2] it was 0.0064 µM. Further, in [16], the pH-dependent lipophilicity (logD) was 3.5. Also, the concentration for a half-maximal effect (EC50) in data set [3] was 0.18 µM; in [4], > 12 µM; in data set [5], 0.8 µM. For the same compound, the half-inhibitory concentration (IC50) in data set [30] was > 12 µM.

As for `Cc1cc(C(F)(F)F)cc(N2C(=O)[C@H](O)[C@H](O)[C@@H]2C(=O)N(C)c2ccc(F)c(Cl)c2)n1`, the IC50 in data set [6] was > 12 µM. Further, the EC50 in [4] and in data set [5] was > 12 µM throughout.

For `CCN(C(=O)COc1nc(C)cc(C)c1C#N)c1cccc(C)c1`, the 50% inhibitory concentration (IC50) in data set [6] was found to be 4.4 µM. Further, the equilibrium dissociation constant (Kd) in data set [2] stood at 0.82 µM. The EC50 was 1.84 µM in data set [3], > 12 µM in data set [4] and > 12 µM in data set [5].

In the case of `Cc1cc(C(F)(F)F)cc(N2C(=O)OC[C@H]2C(=O)N(C)c2cc(Cl)ccc2F)n1`, the microsomal CLint in data set [14] turned out to be 157 µL/min/mg.

For `CCN(C(=O)CNc1nc(C)cc(C)c1C#N)c1cccc(C)c1`, the half-inhibitory concentration (IC50) in [6] is 1.8 µM.

As to `Cc1cccc(N(C)C(=O)[C@@H]2[C@@H](O)CCN2c2nc(C)cc(C(F)(F)F)c2C#N)c1`, the values for the dissociation constant Kd in [1] and in data set [2] were 0.024 µM and 0.042 µM, respectively. Also, the EC50 in [3] was 0.32 µM; in data set [4], > 12 µM; in data set [5], 3 µM.

Take `Cc1cc(C(F)(F)F)cc(N2C(=O)OC[C@H]2C(=O)N(C)c2ccc(F)c(C)c2)n1`: the IC50 in data set [6] is 0.0094 µM. In addition, the microsomal CLint in data set [14] was 404 µL/min/mg.

For `CCN(C(=O)COc1nc(C)c(Br)c(C)c1C#N)c1cccc(C)c1`, the IC50 in data set [6] stood at 1.5 µM.

For the compound `Cc1cc(C(F)(F)F)cc(N2C(=O)[C@@H](O)C[C@H]2C(=O)N(C)c2ccc(F)c(Cl)c2)n1`, the results for the microsomal CLint in data set [7] and in data set [14] were 60 µL/min/mg and 96 µL/min/mg, respectively.

With `CCN(C(=O)[C@H](C)Nc1nc(C)cc(C)c1C#N)c1cccc(C)c1`, the concentration for half-maximal inhibition (IC50) in data set [6] turned out to be 0.23 µM.

Consider `CCN(C(=O)COc1cc(C(C)C)cc(C)n1)c1cccc(C)c1`, for which the IC50 in [6] was determined as 0.4 µM.

For `Cc1cccc(N(C(=O)[C@@H]2CCCN2c2nc(C)cc(C(F)(F)F)c2C#N)C(C)C)c1`, in data set [6], the concentration for half-maximal inhibition (IC50) was determined as 0.0088 µM.

Consider `Cc1cccc(N(C)C(=O)[C@@H]2CCC(=O)N2c2cc(C(F)(F)F)cc(C)n2)c1`, for which the IC50 in [6] was 0.0068 µM. In [14], the microsomal CLint was > 1000 µL/min/mg. Besides, the logD in [16] was found to be 3.7.

As for `Cc1cccc(N(C)C(=O)[C@@H]2COC(=O)N2c2cc(C(F)(F)F)cc(C)n2)c1`, the microsomal CLint in [14] was 580 µL/min/mg. In data set [16], this compound returned a logD of 3.6.

With `Cc1cc(C(F)(F)F)cc(N2C(=O)OC[C@H]2C(=O)N(C)c2cc(Cl)c(F)cc2F)n1`, the microsomal CLint in data set [14] turned out to be 98 µL/min/mg.

Consider `Cc1cc(C(F)(F)F)cc(N2C(=O)OC[C@H]2C(=O)N(C)c2ccc(F)c(Cl)c2F)n1`, for which the IC50 in [6] amounted to 0.0054 µM. In addition, the microsomal CLint in [14] worked out at 210 µL/min/mg.

Consider `Cc1cccc(N(C)C(=O)[C@@H]2C[C@H](O)CN2c2nc(C)cc(C(F)(F)F)c2C#N)c1`, for which, in [16], the log distribution coefficient (logD) came to 3.6. For the same compound, the EC50 in [3] is 0.205 µM; in [4], > 12 µM; in [5] it was 2.3 µM.

`CCN(C(=O)[C@@H]1CCCN1c1nc(C)cc(C)c1C#N)c1cccc(C)c1`: the IC50 in [6] was determined as 0.072 µM.

For orientation: Kd means a measure of binding affinity in units of concentration. By EC50 is commonly meant the concentration at which the effect is half-maximal. A high value points to a need for much substance. As a reminder, the IC50 is the concentration needed to halve the response being measured. Usually clearance stands for a measure of how efficiently the substance is removed, as volume per time. A low value points to a low capacity for elimination. What is called half-life is how long it takes for the measured level to halve. Higher therefore signals slow decline. By bioavailability is commonly meant the share of a dose that reaches the circulation, judged against a reference dose that is usually intravenous. As usually defined, the AUC(0-inf) is total exposure, with the tail of the curve extrapolated. Read a low AUC(0-inf) as less exposure. A word on the logD: it is lipophilicity at a set pH, counting ionised and neutral species. A lower logD goes with lower lipophilicity. For orientation: solubility means the concentration that dissolves in the medium under given conditions. Lower therefore signals little dissolved substance.
